This note sets out measurements from patent US10005792B2, “Aminoindane-, aminotetrahydronaphthalene- and aminobenzocyclobutane-derived PRMT5-inhibitors” (CTXT PTY LTD, priority 2014, dated 2018).

pIC50: −log10 of the molar value. Structures can show the parent of a compound that is named as a salt.

The target of the first experiment is T1, Full-length PRMT5 enzyme co-expressed with MEP50 (Homo sapiens (Human), UniProt O14744). The experiment can be described thus: PRMT5 Biochemical Assay. The note with it: 200 nM histone H4 derived peptide substrate, 1 μM S-Adenosyl methionine, 4 hours at 37° C, Transcreener EPIGEN fluorescence polarisation. How it is done: (§1) Compounds of the invention may be tested for in vitro activity in the following assay: A histone H4 derived peptide is used as substrate (amino acid sequence: […]NH2). Full-length PRMT5 enzyme (NCBI Reference sequence NP-006100.2) was co-expressed with Hiss-MEP50 in insect cells and purified via Nickel immobilized metal affinity and gel filtration chromatography (“the enzyme”).
T1 sequence (O14744 whole entry): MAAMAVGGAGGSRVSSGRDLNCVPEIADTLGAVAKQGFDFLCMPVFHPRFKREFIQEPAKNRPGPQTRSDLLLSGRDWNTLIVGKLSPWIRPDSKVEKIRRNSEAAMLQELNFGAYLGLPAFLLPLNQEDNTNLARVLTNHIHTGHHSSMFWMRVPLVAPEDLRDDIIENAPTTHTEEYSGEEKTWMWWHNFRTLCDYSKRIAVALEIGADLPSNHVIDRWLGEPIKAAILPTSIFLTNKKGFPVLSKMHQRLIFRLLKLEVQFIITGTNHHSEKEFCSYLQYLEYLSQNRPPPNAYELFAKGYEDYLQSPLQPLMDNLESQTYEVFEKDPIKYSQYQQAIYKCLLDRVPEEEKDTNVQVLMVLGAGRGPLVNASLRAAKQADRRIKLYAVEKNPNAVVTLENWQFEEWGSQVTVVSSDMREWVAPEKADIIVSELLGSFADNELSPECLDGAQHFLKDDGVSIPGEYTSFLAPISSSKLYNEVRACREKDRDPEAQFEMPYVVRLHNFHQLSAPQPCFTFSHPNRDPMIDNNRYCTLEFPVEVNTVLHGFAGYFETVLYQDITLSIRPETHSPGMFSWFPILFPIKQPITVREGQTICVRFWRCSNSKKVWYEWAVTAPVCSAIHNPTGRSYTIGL
T1 sequence (Q9BQA1 whole entry partner): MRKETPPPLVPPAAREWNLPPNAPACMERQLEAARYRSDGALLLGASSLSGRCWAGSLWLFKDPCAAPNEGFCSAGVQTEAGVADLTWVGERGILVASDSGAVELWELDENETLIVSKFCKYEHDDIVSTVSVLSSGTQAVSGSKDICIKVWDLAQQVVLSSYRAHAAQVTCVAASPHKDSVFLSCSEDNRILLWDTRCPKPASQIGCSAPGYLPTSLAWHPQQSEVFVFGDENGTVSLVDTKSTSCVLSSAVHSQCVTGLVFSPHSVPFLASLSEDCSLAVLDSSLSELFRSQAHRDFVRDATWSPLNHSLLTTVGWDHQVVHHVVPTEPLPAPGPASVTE
(§2) The 6 μL assay reactions are run in Greiner brand black 384-well low volume plates. All reactions contained assay buffer (phosphate buffered saline, 0.01% (v/v) Tween-20, 0.01% (w/v) albumin from chicken egg white, 1 mM dithiothreitol, 200 nM peptide substrate, 1 μM S-Adenosyl methionine, and 15 ng/reaction enzyme, with the enzyme being omitted from negative control reactions. Compounds were added in a volume of 100 nL from dilution series prepared in DMSO, positive and negative control reactions receiving the same volume DMSO without compound. The plates were sealed with adhesive seals and incubated for 4 hours at 37° C. Reaction progress was measured using the Transcreener™ EPIGEN methyltransferase assay (BellBrook Labs, Madison, Wis.) as recommended by the manufacturer. To each reaction 2 μL detection mix were added, containing coupling enzymes, fluorescence polarisation tracer, and AMP antibody. Plates were incubated for 90 min before being read on a PerkinElmer EnVision™ plate reader in fluorescence polarisation mode.
Compound `O=C(NCC(O)CNC1Cc2ccccc2C1)c1ccc(Cl)cc1` (stereo not drawn) [Compound 1, 4-Chloro-N-(3-((2,3-dihydro-1H-inden-2-yl)amino)-2-hydroxypropyl)benzamide] had a pIC50 of 6.10.
`Cc1nc(-c2ccc(C(F)(F)F)cc2)sc1C(=O)NC[C@H](O)CNC1Cc2ccccc2C1` [Compound 3, (R)—N-(3-((2,3-Dihydro-1H-inden-2-yl)amino)-2-hydroxypropyl)-4-methyl-2-(4-(trifluoromethyl)phenyl)thiazole-5-carboxamide]: the pIC50 is 6.51.
In turn, `O=C(NC[C@H](O)CNC1Cc2ccccc2C1)c1cnn(-c2ccccc2)c1` [Compound 4, (R)-N-(3-((2,3-Dihydro-1H-inden-2-yl)amino)-2-hydroxypropyl)-1-phenyl-1H-pyrazole-4-carboxamide] gave a pIC50 of 5.42.
Same read-out and setting: the value for `Cc1nn(C)cc1-c1cc(C(=O)NC[C@H](O)CNC2Cc3ccccc3C2)no1` [Compound 5, (R)-N-(3-((2,3-Dihydro-1H-inden-2-yl)amino)-2-hydroxypropyl)-5-(1,3-dimethyl-1H-pyrazol-4-yl)isoxazole-3-carboxamide] was 5.01.
Still for that read-out and setting: the figure for `COc1ccc(-c2cc(C(=O)NC[C@H](O)CNC3Cc4ccccc4C3)no2)cc1` [Compound 6, (R)-N-(3-((2,3-Dihydro-1H-inden-2-yl)amino)-2-hydroxypropyl)-5-(4-methoxyphenyl)isoxazole-3-carboxamide] is 5.81.
Same read-out and setting: the value for `O=C(NC[C@H](O)CNC1Cc2ccccc2C1)c1cnn(-c2ccc(F)cc2)c1` [Compound 9, (R)-N-(3-((2,3-Dihydro-1H-inden-2-yl)amino)-2-hydroxypropyl)-1-(4-fluorophenyl)-1H-pyrazole-4-carboxamide] was 5.43.

Another experiment concerns the target T1, Full-length PRMT5 enzyme co-expressed with MEP50. The experiment can be described thus: Revised PRMT5 Biochemical Assay. The following applies: 1 μM histone H4 derived peptide substrate, 1 μM S-Adenosyl methionine, 4 hours at 37 degree Celsius, Transcreener EPIGEN fluorescence polarisation. The protocol: as §1
as §2, with “6 μL reactions are” for “6 μL assay reactions are”, “low volume assay plates. All” for “low volume plates. All”, “1 mM Dithiothreitol, 1 μM peptide substrate,” for “1 mM dithiothreitol, 200 nM peptide substrate,”, “hours at 37 degree Celsius. Reaction progress” for “hours at 37° C. Reaction progress”, “for 90 minutes before being” for “for 90 min before being”, “polarisation mode. IC50 values were obtained from the raw readings by calculating percent inhibition (% I) for each reaction relative to controls on the same plate (% I=(I−CN)/(CP−CN) where CN/CP are the averages of the negative/positive reactions, respectively), then fitting the % I data vs. compound concentration [I] to % I=([…]) where A is the lower asymptote, B is the upper asymptote, C is the IC50 value, and D is the slope.” for “polarisation mode.”
As for `O=C(NC[C@@H](O)CNC1Cc2ccccc2C1)c1cccc2ncsc12` [Compound 113, (S)-N-(3-((2,3-dihydro-1H-inden-2-yl)amino)-2-hydroxypropyl) benzo[d]thiazole-7-carboxamide], the negative-log IC50 (pIC50) is 5.38.
Regarding `CCOc1nc(C(=O)N2C3CCC2COC3)ccc1C(=O)NC[C@@H](O)CNC1Cc2ccccc2C1` [Compound 115, 6-(3-oxa-8-azabicyclo[3.2.1]octane-8-carbonyl)-N-((S)-3-((2,3-dihydro-1H-inden-2-yl)amino)-2-hydroxypropyl)-2-ethoxynicotinamide], the pIC50 is 6.52.
Compound `CCOc1cc(-c2nnc(C)o2)ccc1C(=O)NC[C@@H](O)CNC1Cc2ccccc2C1` [Compound 116, (S)-N-(3-((2,3-dihydro-1H-inden-2-yl)amino)-2-hydroxypropyl)-2-ethoxy-4-(5-methyl-1,3,4-oxadiazol-2-yl)benzamide] had a pIC50 of 6.56.
Consider `O=C(NC[C@@H](O)CNC1Cc2ccccc2C1)c1ccccc1C(F)(F)F` [Compound 118, (S)-N-(3-((2,3-dihydro-1H-inden-2-yl)amino)-2-hydroxypropyl)-2-(trifluoromethyl)benzamide], for which the pIC50 is 3.99.
On the same count and under the same terms, the value for `O=C(NC[C@@H](O)CNC1Cc2ccccc2C1)c1cccc(OC(F)F)c1` [Compound 119, (S)-3-(difluoromethoxy)-N-(3-((2,3-dihydro-1H-inden-2-yl)amino)-2-hydroxypropyl)benzamide] was 5.29; that for `O=C(NC[C@@H](O)CNC1Cc2ccccc2C1)c1cccc2[nH]cnc12` [Compound 120, (S)-N-(3-((2,3-dihydro-1H-inden-2-yl)amino)-2-hydroxypropyl)-1H-benzo[d]imidazole-4-carboxamide] was 4.88; that for `CCOc1cc(C(=O)N2CCOCC2)c(C)cc1C(=O)NC[C@@H](O)CNC1Cc2ccccc2C1` [Compound 122, (S)-N-(3-((2,3-dihydro-1H-inden-2-yl)amino)-2-hydroxypropyl)-2-ethoxy-5-methyl-4-(morpholine-4-carbonyl)benzamide] was 6.78.
Same read-out and setting: the value for `O=C(NC[C@@H](O)CNC1Cc2ccccc2C1)c1cccc2scnc12` [Compound 125, (S)-N-(3-((2,3-dihydro-1H-inden-2-yl)amino)-2-hydroxypropyl)benzo[d]thiazole-4-carboxamide] was 5.17; that for `CCOc1cc(C(=O)N2C3CCC2COC3)ncc1C(=O)NC[C@@H](O)CNC1Cc2ccccc2C1` [Compound 126, 6-(3-oxa-8-azabicyclo[3.2.1]octane-8-carbonyl)-N-((S)-3-((2,3-dihydro-1H-inden-2-yl(amino-2-hydroxypropyl)-4-ethoxynicotinamidedihydrochloride] was 6.65.
Still for that read-out and setting: the value for `O=C(NC[C@@H](O)CNC1Cc2ccccc2C1)c1cccc2[nH]ncc12` [Compound 128, (S)-N-(3-((2,3-dihydro-1H-inden-2-yl)amino)-2-hydroxypropyl)-1H-indazole-4-carboxamide] was 4.81.
For `CCOc1cc(CC(=O)N2C3CCC2COC3)ccc1C(=O)NC[C@@H](O)CNC1Cc2ccccc2C1` [Compound 129, 4-(2-(3-oxa-8-azabicyclo[3.2.1]octan-8-yl)-2-oxoethyl)-N-((S)-3-((2,3-dihydro-1H-inden-2-yl)amino)-2-hydroxypropyl)-2-ethoxybenzamide], the pIC50 was 6.20.
On the same count and under the same terms, the figure for `CCOc1c(C(=O)NC[C@@H](O)CNC2Cc3ccccc3C2)ccc(C(=O)N2CCOCC2)c1C` [Compound 130, (S)-N-(3-((2,3-dihydro-1H-inden-2-yl)amino)-2-hydroxypropyl)-2-ethoxy-3-methyl-4-(morpholine-4-carbonyl)benzamide] is 5.95; for `O=C(NC[C@@H](O)CNC1Cc2ccccc2C1)c1ccccc1Cl` [Compound 131, (S)-2-chloro-N-(3-((2,3-dihydro-1H-inden-2-yl)amino)-2-hydroxypropyl)benzamide] it is 5.34; for `O=C(NC[C@@H](O)CNC1Cc2ccccc2C1)c1cccc2cn[nH]c12` [Compound 132, (S)-N-(3-((2,3-dihydro-1H-inden-2-yl)amino)-2-hydroxypropyl)-1H-indazole-7-carboxamide] it is 4.53.
Compound `COc1cc(C(=O)N2C3CCC2COC3)ccc1C(=O)NC[C@@H](O)CNC1Cc2ccccc2C1` [Compound 134, 4-(3-Oxa-8-azabicyclo[3.2.1]octane-8-carbonyl)-N-((S)-3-((2,3-dihydro-1H-inden-2-yl)amino)-2-hydroxypropyl)-2-methoxybenzamide hydrochloride] gave a pIC50 of 6.62.
On the same count and under the same terms, the figure for `O=C(NC[C@@H](O)CNC1Cc2ccccc2C1)c1ccc(C(=O)N2[C@@H]3CCC[C@H]2COC3)cc1` [Compound 136, 4-((1R,5S)-3-Oxa-9-azabicyclo[3.3.1]nonane-9-carbonyl)-N—((S)-3-((2,3-dihydro-1H-inden-2-yl)amino)-2-hydroxypropyl)benzamide] is 7.30; for `O=C(NC[C@@H](O)CNC1Cc2ccccc2C1)c1ccccc1C(F)F` [Compound 137, (S)-2-(difluoromethyl)-N-(3-((2,3-dihydro-1H-inden-2-yl)amino)-2-hydroxypropyl)benzamide] it is 4.33; for `O=C(NC[C@@H](O)CNC1Cc2ccccc2C1)c1cccc(C(F)F)c1` [Compound 138, (S)-3-(difluoromethyl)-N-(3-((2,3-dihydro-1H-inden-2-yl)amino)-2-hydroxypropyl)benzamide] it is 4.77.
Same read-out and setting: the value for `CC(=O)N1CC2CCC(C1)C2Nc1cccc(C(=O)NC[C@@H](O)CNC2Cc3ccccc3C2)c1` (stereo partly drawn) [Compound 139, 3-((3-Acetyl-3-azabicyclo[3.2.1]octan-8-yl)amino)-N—((S)-3-((2,3-dihydro-1H-inden-2-yl)amino)-2-hydroxypropyl)benzamide] was 6.11; that for `CS(=O)(=O)Nc1cccc(C(=O)NC[C@@H](O)CNC2Cc3ccccc3C2)c1` [Compound 140, (S)—N-(3-((2,3-Dihydro-1H-inden-2-yl)amino)-2-hydroxypropyl)-3-(methylsulfonamido) benzamide] was 5.33; that for `CCOc1cc(C(=O)N2C3CCC2COC3)c(F)cc1C(=O)NC[C@@H](O)CNC1Cc2ccccc2C1` [Compound 141, 4-(3-oxa-8-azabicyclo[3.2.1]octane-8-carbonyl)-N—((S)-3-((2,3-dihydro-1H-inden-2-yl)amino)-2-hydroxypropyl)-2-ethoxy-5-fluorobenzamide] was 6.16.
